Our source for the Papp and inhibition values is ChEMBL document CHEMBL4043168, “The design and SAR of a novel series of 2-aminopyridine based LRRK2 inhibitors” (Bioorg Med Chem Lett, 2017).

SMILES strings stand for the structures.

For one data set, the system named is MDR1. Kind of data set: Apparent permeability in MDCK cells harboring MDR1. Type of data set: ADME, cell-based, Canis lupus familiaris. The settings on record: dog.
For data set [1], the target named is NUAK family SNF1-like kinase 2 (Homo sapiens) (UniProt Q9H093). Kind of data set: Inhibition of NuaK2 conserved Lys1 (LVAIKSIR) in human PBMC at 1 uM.
Data set [2] has as its target Proto-oncogene tyrosine-protein kinase Src (Homo sapiens) (UniProt P12931). Put plainly: Inhibition of SRC ATP binding site (QGAKFPIKWTAPEAALYGR) in human PBMC at 1 uM.
Data set [3] deals with Mitogen-activated protein kinase kinase kinase 4 (Homo sapiens) (UniProt Q9Y6R4). Kind of data set: Inhibition of MAP3K4 conserved Lys2 (DIKGANIFLTSSGLIK) in human PBMC at 0.1 uM.
The target of data set [4] is Ribosomal protein S6 kinase delta-1 (Homo sapiens) (UniProt Q96S38). Put plainly: Inhibition of RSKL1 domain1 Protein Kinase Domain (VLGVIDKVLLVMDTR) in human PBMC at 1 uM.
For data set [5], the target named is T1, Tyrosine-protein kinase JAK3 (Homo sapiens) (UniProt P52333).
T1 sequence (whole entry): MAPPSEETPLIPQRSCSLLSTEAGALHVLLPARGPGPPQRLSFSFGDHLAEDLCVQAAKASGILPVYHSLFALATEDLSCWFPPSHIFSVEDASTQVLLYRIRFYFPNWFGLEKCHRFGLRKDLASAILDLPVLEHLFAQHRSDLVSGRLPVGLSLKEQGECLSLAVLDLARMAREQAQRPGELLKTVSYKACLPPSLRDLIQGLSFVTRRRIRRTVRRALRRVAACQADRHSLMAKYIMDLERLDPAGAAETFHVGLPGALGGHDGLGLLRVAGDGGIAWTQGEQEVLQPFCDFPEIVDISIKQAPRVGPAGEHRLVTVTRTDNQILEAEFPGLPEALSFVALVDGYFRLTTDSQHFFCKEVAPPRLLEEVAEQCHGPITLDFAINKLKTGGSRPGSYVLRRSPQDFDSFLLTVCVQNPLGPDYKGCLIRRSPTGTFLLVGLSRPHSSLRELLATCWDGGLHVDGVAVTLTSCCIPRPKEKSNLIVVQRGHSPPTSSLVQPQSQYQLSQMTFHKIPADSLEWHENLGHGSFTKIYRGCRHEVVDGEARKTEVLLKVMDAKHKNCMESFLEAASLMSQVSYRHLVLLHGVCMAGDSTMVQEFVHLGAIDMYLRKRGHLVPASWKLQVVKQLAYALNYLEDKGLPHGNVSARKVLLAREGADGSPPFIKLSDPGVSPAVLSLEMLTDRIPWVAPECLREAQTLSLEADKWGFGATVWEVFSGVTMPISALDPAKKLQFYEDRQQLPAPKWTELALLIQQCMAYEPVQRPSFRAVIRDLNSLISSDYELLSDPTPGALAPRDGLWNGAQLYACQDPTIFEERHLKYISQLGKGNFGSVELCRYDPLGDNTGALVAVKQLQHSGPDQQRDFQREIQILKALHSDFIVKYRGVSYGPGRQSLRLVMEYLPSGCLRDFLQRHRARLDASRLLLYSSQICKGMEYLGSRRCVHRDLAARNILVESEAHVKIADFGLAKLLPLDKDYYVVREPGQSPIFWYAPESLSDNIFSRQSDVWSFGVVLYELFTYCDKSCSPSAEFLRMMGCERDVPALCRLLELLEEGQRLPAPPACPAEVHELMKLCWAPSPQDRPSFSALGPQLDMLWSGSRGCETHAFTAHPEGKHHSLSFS
Put plainly: Inhibition of JAK3 domain2 activation Loop (IADFGLAKLLPLDKDYYVVR) in human PBMC at 1 uM.

For data set [6], the target named is T2, Serine/threonine-protein kinase 4 (Homo sapiens) (UniProt Q13043).
T2 sequence (whole entry): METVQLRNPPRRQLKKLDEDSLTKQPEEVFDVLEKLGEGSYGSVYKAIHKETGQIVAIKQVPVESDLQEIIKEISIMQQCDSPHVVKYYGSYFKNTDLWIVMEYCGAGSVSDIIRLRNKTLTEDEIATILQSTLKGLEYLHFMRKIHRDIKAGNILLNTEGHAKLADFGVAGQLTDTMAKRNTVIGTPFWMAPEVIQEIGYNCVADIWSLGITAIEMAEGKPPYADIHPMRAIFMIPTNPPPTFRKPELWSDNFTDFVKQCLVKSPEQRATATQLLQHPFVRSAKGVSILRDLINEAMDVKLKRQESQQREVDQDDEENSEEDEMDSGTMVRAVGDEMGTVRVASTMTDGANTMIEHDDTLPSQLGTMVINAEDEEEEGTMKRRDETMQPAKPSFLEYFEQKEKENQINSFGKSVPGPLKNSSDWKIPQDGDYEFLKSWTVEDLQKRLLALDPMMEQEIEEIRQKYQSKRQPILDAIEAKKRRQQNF
Kind of data set: Inhibition of MST1 conserved Lys1 ETGQIVAIKQVPVESDLQEIIK in human PBMC at 0.1 uM.

Data set [7] concerns the target Mitogen-activated protein kinase kinase kinase kinase 5 (Homo sapiens) (UniProt Q9Y4K4). Put plainly: Inhibition of KHS1 conserved Lys1 (NVHTGELAAVKIIK) in human PBMC at 1 uM.
The target of data set [8] is MAP/microtubule affinity-regulating kinase 4 (Homo sapiens) (UniProt Q96L34). Put plainly: Inhibition of MARK4 conserved Lys1 (EVAIKIIDK) in human PBMC at 0.1 uM.
Data set [9] concerns the target Serine/threonine-protein kinase Nek8 (Homo sapiens) (UniProt Q86SG6). Put plainly: Inhibition of NEK8 conserved Lys2 (DLKTQNILLDK) in human PBMC at 0.1 uM.
The target of data set [10] is Serine/threonine-protein kinase Nek6 (Homo sapiens) (UniProt Q9HC98). Put plainly: Inhibition of NEK6 conserved Lys2 (DIKPANVFITATGVVK) in human PBMC at 1 uM.
Data set [11] has as its target Phosphatidylinositol 5-phosphate 4-kinase type-2 alpha (Homo sapiens) (UniProt P48426). Put plainly: Inhibition of PIP4K2A ATP binding site (AKELPTLKDNDFINEGQK) in human PBMC at 0.1 uM.
Data set [12] has as its target Calcium/calmodulin-dependent protein kinase type II subunit beta (Homo sapiens) (UniProt Q13554). Kind of data set: Inhibition of CaMK2b labeling at conserved Lys2 (DLKPENLLLASK) in human PBMC at 1 uM.
Data set [13] addresses Eukaryotic elongation factor 2 kinase (Homo sapiens) (UniProt O00418). Put plainly: Inhibition of eEF2K ATP binding site (YIKYNSNSGFVR) in human PBMC at 1 uM.
For data set [14], the target named is Kinase suppressor of Ras 1 (Homo sapiens) (UniProt Q8IVT5). Kind of data set: Inhibition of KSR1 activation Loop (SKNVFYDNGK) in human PBMC at 0.1 uM.
The target in data set [15] is Myosin light chain kinase, smooth muscle (Homo sapiens) (UniProt Q15746). Put plainly: Inhibition of smMLCK conserved Lys1 (VWAGKFFK) in human PBMC at 0.1 uM.
The target in data set [16] is Mitogen-activated protein kinase 7 (Homo sapiens) (UniProt Q13164). Put plainly: Inhibition of Erk5 conserved Lys2 (DLKPSNLLVNENCELK) in human PBMC at 1 uM.

Sequence of Proto-oncogene tyrosine-protein kinase Src (Homo sapiens) (P12931 2-536 limits assumed): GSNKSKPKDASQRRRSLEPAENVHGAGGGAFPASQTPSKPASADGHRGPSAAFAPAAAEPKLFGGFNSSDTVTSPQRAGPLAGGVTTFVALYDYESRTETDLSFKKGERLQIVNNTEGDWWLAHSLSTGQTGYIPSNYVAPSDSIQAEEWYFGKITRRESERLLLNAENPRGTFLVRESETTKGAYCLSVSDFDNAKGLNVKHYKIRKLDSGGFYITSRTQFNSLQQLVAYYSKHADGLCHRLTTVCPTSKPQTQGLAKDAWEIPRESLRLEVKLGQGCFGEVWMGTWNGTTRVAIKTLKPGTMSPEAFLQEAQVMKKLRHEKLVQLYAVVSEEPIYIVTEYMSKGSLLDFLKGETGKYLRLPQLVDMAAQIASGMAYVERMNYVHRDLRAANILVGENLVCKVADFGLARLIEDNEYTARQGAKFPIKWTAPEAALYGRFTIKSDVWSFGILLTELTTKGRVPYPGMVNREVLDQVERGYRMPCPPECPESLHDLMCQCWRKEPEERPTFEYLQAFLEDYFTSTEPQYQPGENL
Sequence of Serine/threonine-protein kinase Nek8 (Homo sapiens) (Q86SG6 whole entry): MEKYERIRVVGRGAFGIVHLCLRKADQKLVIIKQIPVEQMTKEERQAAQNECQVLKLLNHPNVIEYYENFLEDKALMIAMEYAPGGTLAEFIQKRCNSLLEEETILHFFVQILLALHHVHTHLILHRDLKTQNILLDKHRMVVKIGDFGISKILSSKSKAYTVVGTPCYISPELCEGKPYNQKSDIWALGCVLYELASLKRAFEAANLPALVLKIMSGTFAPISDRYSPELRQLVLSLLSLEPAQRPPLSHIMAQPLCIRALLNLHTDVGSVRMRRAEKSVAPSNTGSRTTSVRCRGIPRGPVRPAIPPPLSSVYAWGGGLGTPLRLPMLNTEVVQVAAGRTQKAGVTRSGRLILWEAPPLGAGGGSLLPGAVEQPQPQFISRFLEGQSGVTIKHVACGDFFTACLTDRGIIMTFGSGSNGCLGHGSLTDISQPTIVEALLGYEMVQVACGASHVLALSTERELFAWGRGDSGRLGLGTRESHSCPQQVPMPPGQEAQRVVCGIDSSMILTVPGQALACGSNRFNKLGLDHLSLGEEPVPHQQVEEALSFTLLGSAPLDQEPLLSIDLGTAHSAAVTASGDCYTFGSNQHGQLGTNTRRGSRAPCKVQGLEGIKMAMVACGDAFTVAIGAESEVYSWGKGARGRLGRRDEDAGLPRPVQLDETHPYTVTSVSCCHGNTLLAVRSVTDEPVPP
Sequence of Ribosomal protein S6 kinase delta-1 (Homo sapiens) (Q96S38 whole entry, the tested form may be a part): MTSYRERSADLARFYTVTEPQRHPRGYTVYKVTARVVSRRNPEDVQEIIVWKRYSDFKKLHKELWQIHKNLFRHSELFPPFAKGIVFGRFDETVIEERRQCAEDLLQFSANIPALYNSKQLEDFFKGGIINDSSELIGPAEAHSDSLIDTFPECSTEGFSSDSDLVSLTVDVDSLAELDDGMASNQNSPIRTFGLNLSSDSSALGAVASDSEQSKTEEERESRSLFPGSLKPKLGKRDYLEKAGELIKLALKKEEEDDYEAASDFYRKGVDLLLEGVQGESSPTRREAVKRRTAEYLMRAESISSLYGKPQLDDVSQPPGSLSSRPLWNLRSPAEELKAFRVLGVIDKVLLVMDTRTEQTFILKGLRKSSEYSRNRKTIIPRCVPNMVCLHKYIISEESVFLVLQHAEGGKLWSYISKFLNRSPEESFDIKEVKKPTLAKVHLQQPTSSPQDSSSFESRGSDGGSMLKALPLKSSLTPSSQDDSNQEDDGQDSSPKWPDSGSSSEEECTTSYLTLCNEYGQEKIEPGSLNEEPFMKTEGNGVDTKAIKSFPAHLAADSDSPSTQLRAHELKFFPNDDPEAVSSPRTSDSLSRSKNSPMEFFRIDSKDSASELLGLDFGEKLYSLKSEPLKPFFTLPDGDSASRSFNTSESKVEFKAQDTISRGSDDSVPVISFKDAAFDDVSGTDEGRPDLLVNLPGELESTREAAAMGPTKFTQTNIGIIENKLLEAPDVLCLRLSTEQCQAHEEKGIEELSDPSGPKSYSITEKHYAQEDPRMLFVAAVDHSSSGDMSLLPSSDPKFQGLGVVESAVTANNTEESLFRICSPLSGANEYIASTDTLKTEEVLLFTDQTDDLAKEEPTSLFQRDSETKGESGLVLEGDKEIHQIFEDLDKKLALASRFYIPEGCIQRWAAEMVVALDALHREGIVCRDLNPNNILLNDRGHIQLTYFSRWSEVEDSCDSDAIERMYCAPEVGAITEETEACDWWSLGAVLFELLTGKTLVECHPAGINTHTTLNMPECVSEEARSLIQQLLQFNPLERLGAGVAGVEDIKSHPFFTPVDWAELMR
Sequence of Calcium/calmodulin-dependent protein kinase type II subunit beta (Homo sapiens) (Q13554 whole entry): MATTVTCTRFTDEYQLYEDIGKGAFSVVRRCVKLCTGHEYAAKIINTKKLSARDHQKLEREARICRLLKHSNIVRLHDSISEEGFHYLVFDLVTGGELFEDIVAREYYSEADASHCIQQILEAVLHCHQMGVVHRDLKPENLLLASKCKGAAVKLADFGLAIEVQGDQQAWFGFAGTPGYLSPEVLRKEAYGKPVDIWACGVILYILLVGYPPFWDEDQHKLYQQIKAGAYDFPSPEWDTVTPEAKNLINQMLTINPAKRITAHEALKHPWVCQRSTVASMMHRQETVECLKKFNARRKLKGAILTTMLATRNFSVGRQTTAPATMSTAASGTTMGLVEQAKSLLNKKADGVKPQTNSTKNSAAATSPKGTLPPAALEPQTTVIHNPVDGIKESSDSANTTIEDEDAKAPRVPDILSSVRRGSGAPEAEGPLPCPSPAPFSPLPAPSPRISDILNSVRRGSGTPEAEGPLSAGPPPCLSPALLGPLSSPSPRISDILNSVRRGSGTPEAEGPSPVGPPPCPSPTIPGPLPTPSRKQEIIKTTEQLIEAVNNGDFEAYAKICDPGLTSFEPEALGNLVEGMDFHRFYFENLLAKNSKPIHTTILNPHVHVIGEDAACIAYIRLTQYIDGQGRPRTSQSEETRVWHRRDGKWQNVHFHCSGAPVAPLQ
Sequence of MAP/microtubule affinity-regulating kinase 4 (Homo sapiens) (Q96L34 whole entry): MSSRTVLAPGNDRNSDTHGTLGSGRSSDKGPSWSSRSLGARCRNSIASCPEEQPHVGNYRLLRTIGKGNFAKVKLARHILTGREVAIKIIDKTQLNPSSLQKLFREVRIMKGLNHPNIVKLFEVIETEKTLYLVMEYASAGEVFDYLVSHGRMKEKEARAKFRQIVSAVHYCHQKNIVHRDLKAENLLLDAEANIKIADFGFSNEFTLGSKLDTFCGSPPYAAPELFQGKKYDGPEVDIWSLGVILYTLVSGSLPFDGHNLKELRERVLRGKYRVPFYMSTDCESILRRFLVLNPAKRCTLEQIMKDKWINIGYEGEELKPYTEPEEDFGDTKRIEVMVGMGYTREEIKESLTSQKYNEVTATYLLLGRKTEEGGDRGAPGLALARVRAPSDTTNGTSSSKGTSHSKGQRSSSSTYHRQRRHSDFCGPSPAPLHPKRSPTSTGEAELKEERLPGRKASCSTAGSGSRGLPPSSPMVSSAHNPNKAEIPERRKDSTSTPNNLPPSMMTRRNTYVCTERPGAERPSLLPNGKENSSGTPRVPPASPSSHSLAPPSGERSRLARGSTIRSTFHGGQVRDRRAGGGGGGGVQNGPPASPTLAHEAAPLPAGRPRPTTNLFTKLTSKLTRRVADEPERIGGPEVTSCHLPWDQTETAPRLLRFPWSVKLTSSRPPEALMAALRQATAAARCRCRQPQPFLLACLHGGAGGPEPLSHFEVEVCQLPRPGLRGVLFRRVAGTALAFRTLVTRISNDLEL
Sequence of NUAK family SNF1-like kinase 2 (Homo sapiens) (Q9H093 whole entry): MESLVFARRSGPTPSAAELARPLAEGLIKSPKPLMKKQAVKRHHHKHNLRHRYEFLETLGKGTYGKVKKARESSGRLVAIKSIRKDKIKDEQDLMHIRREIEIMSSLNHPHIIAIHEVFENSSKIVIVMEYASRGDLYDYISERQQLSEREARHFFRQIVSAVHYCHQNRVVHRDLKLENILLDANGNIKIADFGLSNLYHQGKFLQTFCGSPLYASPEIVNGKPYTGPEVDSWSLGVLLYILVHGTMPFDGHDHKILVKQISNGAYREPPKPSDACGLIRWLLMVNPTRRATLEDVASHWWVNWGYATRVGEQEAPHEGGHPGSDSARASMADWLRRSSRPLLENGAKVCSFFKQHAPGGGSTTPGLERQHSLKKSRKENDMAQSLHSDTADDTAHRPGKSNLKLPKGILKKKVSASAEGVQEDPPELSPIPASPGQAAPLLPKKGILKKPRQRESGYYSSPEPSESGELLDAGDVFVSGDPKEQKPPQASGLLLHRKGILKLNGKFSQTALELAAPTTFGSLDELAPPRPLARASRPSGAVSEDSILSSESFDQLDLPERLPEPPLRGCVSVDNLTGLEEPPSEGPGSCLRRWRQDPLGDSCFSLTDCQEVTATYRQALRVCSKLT
Sequence of Phosphatidylinositol 5-phosphate 4-kinase type-2 alpha (Homo sapiens) (P48426 whole entry): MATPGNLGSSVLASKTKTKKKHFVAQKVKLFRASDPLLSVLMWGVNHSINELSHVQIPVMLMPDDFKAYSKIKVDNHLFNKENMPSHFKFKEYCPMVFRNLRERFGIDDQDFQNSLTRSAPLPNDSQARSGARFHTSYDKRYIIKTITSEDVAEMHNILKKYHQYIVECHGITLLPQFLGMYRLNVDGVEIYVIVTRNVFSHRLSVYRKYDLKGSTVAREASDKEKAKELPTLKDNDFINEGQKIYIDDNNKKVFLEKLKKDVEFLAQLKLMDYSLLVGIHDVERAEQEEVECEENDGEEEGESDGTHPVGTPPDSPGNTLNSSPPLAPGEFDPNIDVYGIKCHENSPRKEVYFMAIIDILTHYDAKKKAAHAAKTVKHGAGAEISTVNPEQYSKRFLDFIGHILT

With `CC(C)n1cc(-c2cc(-c3ccc(CN4CCOCC4)cc3)cnc2N)nn1`, the Papp with MDR1 was 26.3 ×10⁻⁶ cm/s. Also, the inhibition was -8.4% in data set [1]; -2.3% in [2]; 3.8% in data set [3]; 4.7% in data set [4]; 7.8% in data set [5]; -6.6% in data set [6]. In addition, the inhibition was 3.8% in data set [7]; -6.7% in data set [8]; 0.2% in data set [9]; -9.6% in data set [10]; 10.3% in [11]; -0.4% in data set [12]. For the same compound, the inhibition in data set [13] was -6.7%; in data set [14], 20.4%; in data set [15], 29.6%; in data set [16], 30%.
